From publication PMC4007625, “A phase I study of AST1306, a novel irreversible EGFR and HER2 kinase inhibitor, in patients with advanced solid tumors” (Journal of Hematology & Oncology, 2014)

Legend:
EGFR = tested on: EGFR; set-up: method as in PMID 21789172, PMID 18408761, PMID 15728811, PMID 15737014, PMID 17085664; conditions: cited from earlier work
EGFR T790M mutant = tested on: EGFR T790M mutant; set-up: method as in PMID 21789172, PMID 18408761, PMID 15728811, PMID 15737014, PMID 17085664; conditions: cited from earlier work
[1] = tested on: human tumor xenograft models that expressed or overexpressed HER family members; set-up: method as in PMID 21789172; conditions: especially HER2 overexpression or EGFR T790M mutant tumors; cited from earlier work
[2] = Food-effect study, two-way crossover, single dose; assay type: in vivo, human; conditions: for apparent oral clearance (CL/F) / Tmax / AUC(0-inf) / AUC(0-t) / Cmax / half-life: 1000 mg single oral dose; for apparent oral clearance (CL/F) / AUC(0-inf) / AUC(0-t) / Cmax / half-life: geometric mean (range); for Tmax / AUC(0-inf) / AUC(0-t) / Cmax / half-life: plasma, po; for Tmax: (range); for half-life: read-out: t1/2z (converted)
Description: Figure S1). On day 1, 6 subjects were fasted and 6 were fed, and all 12 subjects received a single dose of AST1306. […] On “fasting” days (day 1 or 4), subjects were required to fast for a minimum of 2 h prior to dosing, and for at least 1 h post-dosing. […] PK sampling then took place on day 1 and day 4. The PK sampling time points were pre-dose, 0.5, 1, 1.5, 2, 2.5, 3, 4, 6, 8, 12, and 24 hours after dosing. The power model method was used to assess the dose proportionality.

clinical = conditions: human, in vivo; for AUC(0-inf): AUC0-∞
Description: This was the first-in-human phase I dose-escalation study of AST1306 for patients with advanced solid tumors. AST1306 was orally administered without food for one day followed by two days off to evaluate single dose PK profiles. After that, it was continuously administered for 21 days and two days off to assess multiple dose PK profiles and safety. […] Three times daily in three dose levels (800 mg TID, 1000 mg TID and 1200 mg TID) were explored subsequently. Treatment was then repeated at the same dose level in 28-day cycles until unacceptable toxicities, disease progression or the patient’s withdrew from the study. PK extension study was performed to enroll additional patients up to at least eight patients per dose cohort in three dose levels (MTD, one or two doses level lower than the MTD) for further evaluation of PK profiles.
All PK sampling was performed in the first cycle. Plasma concentrations of AST1306 single-day dosing were determined at the following distinct time points: pre-dose, 0.5 h, 1 h, 1.5 h, 2 h, 3 h, 4 h, 6 h, 8 h, 10 h, 12 h, 24 h, 36 h, and 48 h after the single dose administration in the 400 mg QD and 800 mg QD dose cohorts. For the next five dose cohorts with twice daily (once every 12 hours) administration, the time points of plasma sample collection were as follows: pre-dose, 0.5 h, 1 h, 1.5 h, 2 h, 3 h, 4 h, 6 h, 8 h, and 12 h after the first dose administration, and pre-dose, 1 h, 2 h, 3 h, 4 h, 6 h, 8 h, 12 h, and 24 h after the second dose administration. Three dose cohorts with three times daily (once every 8 hours) administration were further investigated with distinct time points for plasma collecting (pre-dose, 0.5 h, 1 h, 1.5 h, 2 h, 3 h, 4 h, 6 h, and 8 h after the first dose administration; 1 h, 2 h, 3 h, 4 h, 5 h, 6 h, and 8 h after the second dose administration; 1 h, 2 h, 3 h, 4 h, 8 h, 12 h, 24 h, and 36 h after the third dose administration). PK parameters of AST1306 were also determined on days 10, 23 (pre-dose and 2 h after the first dosing), and 24 (steady state, the same time points as the first-day dosing) of continuous treatment. The PK sampling schedule for the PK extension phase was totally the same as that for the dose escalation study.
PK analysis was conducted using Phoenix WinNonlin® software (version 6.1, Pharsight, Mountainview, CA). Standard non-compartmental methods were used to calculate the area under the plasma concentration-time curve over the time interval from 0 to 24 h (AUC0–24,ss), maximum measured concentration of the analyte in plasma (Cmax), and terminal half-life of the analyte in plasma (t1/2). Time from dosing to the maximum concentration of the analyte in plasma (tmax,) was reported as a median value. The concentration at the trough level was determined using the concentration at 24 h (C24) on steady state days.
The power model method was used to assess the dose proportionality. The differences between fed and fasting conditions were assessed by ANOVA, and 90% confidence intervals for ratios were given.

[3] = human, 1000 mg, fed, high-fat breakfast (n =12)

C=CC(=O)Nc1ccc2ncnc(Nc3ccc(OCc4cccc(F)c4)c(Cl)c3)c2c1 [AST1306]
fold more potent than afatinib and dacomitinib (EGFR; EGFR and HER2 IC50): 5-15 fold
IC50 (EGFR; preclinical, read-out: IC50 inhibiting EGFR): 0.5 nM
fold more potent than lapatinib (EGFR T790M mutant; EGFR T790M mutant): approximately 500 fold
IC50 (EGFR T790M mutant; preclinical): 12 ± 2 nM
antitumor activity in xenograft models [1]: showed antitumor activities
apparent oral clearance (CL/F) ([2]; fasted (n =12)): 3970 (1370-8890) L/h
apparent oral clearance (CL/F) ([2]; fed, high-fat breakfast (n =12)): 1360 (608-2340) L/h
Treatment ratio fed/fasted, AUC0-∞ ([2]; human, in vivo, 1000 mg): 269 (208-348) %
Treatment ratio fed/fasted, AUC0–t ([2]; human, in vivo, 1000 mg): 284 (219-368) %
Treatment ratio fed/fasted, Cmax ([2]; human, in vivo, 1000 mg): 228 (170-305) %
Tmax ([2]; human, 1000 mg, fasted (n =12)): 2.38 h
AUC(0-inf) ([2]; human, 1000 mg, fasted (n =12)): 331 ng·h/mL
AUC(0-t) ([2]; human, 1000 mg, fasted (n =12)): 311 ng·h/mL
Cmax ([2]; human, 1000 mg, fasted (n =12)): 70.3 ng/mL
half-life ([2]; human, 1000 mg, fasted (n =12)): 6.99 h
Tmax [2, 3]: 4.25 h
AUC(0-inf) [2, 3]: 814 ng·h/mL
AUC(0-t) [2, 3]: 797 ng·h/mL
Cmax [2, 3]: 139 ng/mL
half-life [2, 3]: 4.19 h
Tmax (clinical): 2.65 (43.8) h
multiple-dose vs single-dose exposure (mean accumulation ratio R, AUCss day 23–24 / AUC0-24h day 1) (clinical): no more than 3 fold
t1/2z (clinical): 5.56 (51.6) h
AUC0-24 h (clinical; 400 mg): 116 ng·h/mL
AUC0-∞ (clinical; 400 mg): 119 ng·h/mL
AUC(0-t) (clinical; 400 mg): 116 ng·h/mL
Cmax (clinical; 400 mg): 22.6 ng/mL
R_AUC (accumulation ratio, AUCss days 23–24 / AUC0-24h day 1) (clinical; 400 mg): 2.81
Tmax (clinical; 400 mg): 2.00 h
t1/2z (clinical; 400 mg): 4.66 h
λz (clinical; 400 mg): 0.149 h⁻¹
Cmax3 (clinical; 600 mg): 64.5 (69.4) ng/mL
Cmax (clinical; 800 mg): 50.0 (16.0) ng/mL
Cmax2 (clinical; 800 mg): 74.3 (20.4) ng/mL
Cmax (clinical; 800 mg, Cmax): 67.7 ng/mL
AUC0-24 h (clinical; 1000 mg): 696 (57.6) h*ng/mL
AUC0-∞ (clinical; 1000 mg): 792 (54.1) h*ng/mL
AUC(0-t) (clinical; 1000 mg): 781 (54.7) h*ng/mL
Cmax (clinical; 1000 mg): 75.0 (52.1) ng/mL
Cmax3 (clinical; 1000 mg): 89.7 (42.1) ng/mL
AUC(0-t) (clinical; 1000 mg, AUC0-24 h): 1130 ng·h/mL
AUC(0-t) (clinical; 1000 mg, AUC0-t): 1420 ng·h/mL
AUC(0-inf) (clinical; 1000 mg): 1430 ng·h/mL
Cmax (clinical; 1000 mg, Cmax): 47.3 ng/mL
Cmax (clinical; 1200 mg): 50.9 (70.6) ng/mL
Cmax3 (clinical; 1200 mg): 210.0 (81.5) ng/mL
Cmax (clinical; 1200 mg, Cmax): 61.9 ng/mL
Cmax2 (clinical; 1500 mg): 103.0 (25.8) ng/mL
R_AUC (accumulation ratio, AUCss days 23–24 / AUC0-24h day 1) (clinical; 1500 mg): 0.87 (32.0)
Tmax (clinical; 1500 mg): 1.92 (30.5) h
t1/2z (clinical; 1500 mg): 3.48 (12.8) h
λz (clinical; 1500 mg): 0.202 (13.3) 1/h
AUC(0-t) (clinical; 1500 mg, AUC0-24 h): 997 ng·h/mL
AUC(0-t) (clinical; 1500 mg, AUC0-t): 1190 ng·h/mL
AUC(0-inf) (clinical; 1500 mg): 1200 ng·h/mL
Cmax (clinical; 1500 mg, Cmax): 57.1 ng/mL
half-life (clinical; gMean terminal half-life): 3.33 to 7.57 h
time to Cmax after oral administration (clinical; po): 1.83 to 3.67 h
half-life (clinical; t1/2): 3 to 5 h
half-life (clinical; terminal half-life): 3.48 to 5.56 h
